The source of these data is PubChem BioAssay (NCI).

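Dose response: 5 concentrations. Exposure: 48 h. Format: 96-well plates. Endpoint: linear interpolation; highest concentration if not reached. GI50: concentration for 50% inhibition of growth. Definition used: TGI = concentration required for complete inhibition of growth.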

Among the test systems are HL-60(TB) leukemia; IGROV1 ovarian; K-562 leukemia; MALME-3M melanoma; NCI-H460 lung; NCI-H522 lung; SF-295 CNS; SK-OV-3 ovarian; SN12C renal; SW-620 colon.
Common to all, as to experiment: NCI anticancer screen, dose series, 48 h

Turning to `COc1ccc(C(=O)c2nc3ccccc3n2CC(=O)c2ccc(Cl)cc2)cc1`, the GI50 with HL-60(TB) leukemia is 0.958 µM; in the experiment with IGROV1 ovarian, 6.09 µM; with K-562 leukemia, 0.585 µM; in the experiment with MALME-3M melanoma, 1.92 µM; in the experiment with NCI-H460 lung, 7.34 µM; in the experiment with NCI-H522 lung, 3.95 µM. Further, the GI50 is 2.5 µM in the experiment with SF-295 CNS, 10.4 µM with SK-OV-3 ovarian, 9.72 µM in the experiment with SN12C renal and 1.29 µM in the experiment with SW-620 colon. For the same compound, the TGI with HL-60(TB) leukemia was 5.06 µM; in the experiment with IGROV1 ovarian it was greater than 100 µM; in the experiment with K-562 leukemia, greater than 100 µM; with MALME-3M melanoma it was greater than 100 µM; in the experiment on NCI-H460 lung, greater than 100 µM; in the experiment with NCI-H522 lung, greater than 100 µM. Also, the TGI with SF-295 CNS, in the experiment with SK-OV-3 ovarian, in the experiment on SN12C renal and with SW-620 colon was greater than 100 µM each time.
In the case of `CC(C)[O-].CC(C)[O-].CN(CCN(C)Cc1cc(F)cc(F)c1[O-])Cc1cc(F)cc(F)c1[O-].[Ti+4]`, the GI50 in the experiment on HL-60(TB) leukemia is 1.51 µM; in the experiment with IGROV1 ovarian it was 0.688 µM; in the experiment with K-562 leukemia, 0.835 µM; in the experiment on MALME-3M melanoma, 0.379 µM; in the experiment with NCI-H460 lung, 0.575 µM; in the experiment with NCI-H522 lung, 0.777 µM. Besides, the GI50 in the experiment with SF-295 CNS is 0.71 µM; in the experiment with SK-OV-3 ovarian, 0.634 µM; in the experiment on SN12C renal, 1.53 µM; with SW-620 colon it was 0.828 µM. Also, the TGI with HL-60(TB) leukemia is greater than 40.8 µM; with IGROV1 ovarian, 2.47 µM; in the experiment with K-562 leukemia, 5.49 µM; with MALME-3M melanoma it was 1.43 µM; with NCI-H460 lung it was 2.83 µM; in the experiment with NCI-H522 lung it was 2.33 µM. The TGI with SF-295 CNS worked out at 3.76 µM; with SK-OV-3 ovarian, 9.09 µM; in the experiment with SN12C renal it was 7.31 µM; with SW-620 colon, 3.3 µM.
Turning to `COc1ccc(-c2c(C3=NCCCN3)nnn2-c2ccc([N+](=O)[O-])cc2)cc1`, the TGI with HL-60(TB) leukemia, in the experiment with IGROV1 ovarian, in the experiment on K-562 leukemia, in the experiment with MALME-3M melanoma, with NCI-H460 lung and in the experiment with NCI-H522 lung was greater than 100 µM throughout. Also, the TGI in the experiment on SF-295 CNS, with SK-OV-3 ovarian, in the experiment with SN12C renal and with SW-620 colon was greater than 100 µM throughout.
Take `O=C1c2ccccc2-c2c1c1c(NCCCO)nc3ccccc3c1n2Cc1ccccc1`: the GI50 was 12 µM in the experiment on HL-60(TB) leukemia; 48.6 µM in the experiment with IGROV1 ovarian; 15.5 µM in the experiment on K-562 leukemia; 19 µM with MALME-3M melanoma; 17.5 µM in the experiment on NCI-H460 lung; 26 µM in the experiment on NCI-H522 lung. The GI50 in the experiment on SF-295 CNS is 22.3 µM; with SK-OV-3 ovarian, 21.9 µM; with SN12C renal it was 26 µM; in the experiment with SW-620 colon, 27.4 µM. Also, the TGI with HL-60(TB) leukemia is 25.7 µM; in the experiment on IGROV1 ovarian, greater than 100 µM; with K-562 leukemia, 28.8 µM; with MALME-3M melanoma, 38.2 µM; in the experiment on NCI-H460 lung it was 38.1 µM; in the experiment on NCI-H522 lung it was 96.3 µM. Further, the TGI in the experiment on SF-295 CNS is 45.3 µM; in the experiment with SK-OV-3 ovarian, 40.4 µM; with SN12C renal it was 62.5 µM; in the experiment on SW-620 colon, greater than 100 µM.
In the case of `Fc1ccc2nc(-c3cc(-c4ccc5c(c4)OCO5)n[nH]3)[nH]c2c1`, the GI50 in the experiment with HL-60(TB) leukemia was 3.09 µM; in the experiment on IGROV1 ovarian, 3.79 µM; with K-562 leukemia, 4.35 µM; in the experiment on MALME-3M melanoma it was 2.75 µM; in the experiment with NCI-H460 lung it was 4.22 µM; in the experiment on NCI-H522 lung it was 2.61 µM. For the same compound, the GI50 with SF-295 CNS is 4.99 µM; with SK-OV-3 ovarian it was 7.95 µM; in the experiment with SN12C renal it was 4.59 µM; with SW-620 colon, 5.68 µM. Besides, the TGI is 55.5 µM with HL-60(TB) leukemia; greater than 100 µM with IGROV1 ovarian; greater than 100 µM in the experiment with K-562 leukemia; greater than 100 µM in the experiment on MALME-3M melanoma; greater than 40.2 µM with NCI-H460 lung; 13 µM in the experiment with NCI-H522 lung. Also, the TGI was greater than 81.3 µM in the experiment with SF-295 CNS, 26.5 µM in the experiment on SK-OV-3 ovarian, greater than 100 µM with SN12C renal and greater than 43.1 µM with SW-620 colon.
Take `COc1cc(CNc2nc3ccc(C(F)(F)F)cc3nc2-c2ccccc2)cc(OC)c1OC`: the TGI with HL-60(TB) leukemia was 55.9 µM; with IGROV1 ovarian it was greater than 100 µM; with K-562 leukemia it was greater than 100 µM; with MALME-3M melanoma it was greater than 100 µM; with NCI-H460 lung, greater than 100 µM; with NCI-H522 lung, 55.7 µM. The TGI with SF-295 CNS, in the experiment with SK-OV-3 ovarian, in the experiment with SN12C renal and in the experiment with SW-620 colon was greater than 100 µM throughout.
`CCCCCCC(C)CCCCCCCCCCC(=O)O` (stereo not given): the TGI with HL-60(TB) leukemia, in the experiment with IGROV1 ovarian, in the experiment on K-562 leukemia, in the experiment on MALME-3M melanoma, in the experiment on NCI-H460 lung and in the experiment on NCI-H522 lung was greater than 100 µM in each case. In addition, the TGI in the experiment with SF-295 CNS, with SK-OV-3 ovarian, in the experiment on SN12C renal and in the experiment with SW-620 colon was greater than 100 µM throughout.
For the compound `O=C(Cl)C1=C(c2ccccc2)C1c1ccccc1` (stereo not given), the TGI in the experiment on HL-60(TB) leukemia, in the experiment on IGROV1 ovarian, with K-562 leukemia, with MALME-3M melanoma, in the experiment with NCI-H460 lung and with NCI-H522 lung was greater than 100 µM in each case. Also, the TGI in the experiment with SF-295 CNS, with SK-OV-3 ovarian, in the experiment with SN12C renal and in the experiment on SW-620 colon was greater than 100 µM throughout.
With `CN1c2ccccc2SC2C(c3ccccc3)=NOC21` (stereo not given), the TGI is greater than 100 µM in the experiment with HL-60(TB) leukemia; greater than 100 µM in the experiment with IGROV1 ovarian; greater than 100 µM in the experiment on K-562 leukemia; 86.5 µM in the experiment with MALME-3M melanoma; greater than 100 µM in the experiment with NCI-H460 lung; 64.1 µM in the experiment on NCI-H522 lung. Further, the TGI in the experiment with SF-295 CNS, with SK-OV-3 ovarian, in the experiment on SN12C renal and in the experiment with SW-620 colon was greater than 100 µM throughout.
